Data: patent US8393321B2, “Drug delivery system for conscious sedation” (Piramal Critical Care, Inc., priority 2001, dated 2013)
Like-named read-outs stand apart in the source and are kept apart here.

Tests used:
patient = conditions: conscious sedation; cited from earlier work
patients [1] = conditions: in 100% oxygen for middle-aged men, cited from earlier work
patients [2] = assay: Conscious sedation (CS) level, MAC equivalent of 70% nitrous oxide; format: in vivo, human
Experimental: The concentration of oxygen in the atmosphere approximates 21%. […] The most common ratio is 70% N2O/30% oxygen, although some delivery systems maintain 50% oxygen.
The potency of anesthetic agents is measured by the minimum alveolar concentration of an anesthetic producing immobility in 50% of patients, defined as 39 year old males, undergoing surgical incision (“MAC”). […] In present inhalant conscious sedation systems, nitrous oxide is delivered in conjunction with a minimum of 30% oxygen to insure the patient maintains a sufficient level of oxygen. […] For this description a MAC equivalent of 70% nitrous oxide will be used for comparison with other inhalants, as shown in Table 2.

patients [3] = conditions: N2O with oxygen; cited from earlier work
[4] = soda lime (calcium hydroxide) and/or UV light; cited from earlier work

Compound | Abuse Potential (patient) | Safety Profile (patient) | MAC (patients [1]) | Implied CS Level (patients [2]; in vivo) | decomposition in presence of soda lime and/or UV light [4] | also measured
[N-]=[N+]=O [Nitrous Oxide] | Recre- | Teratogenic | 110.00% | 70.00% | – | MAC (patients [1]; listed as nitrous oxide): 110%; MAC Equivalent (patients [2]; in vivo): .636; Minimum Alveolar Content (MAC) of 70% N2O/30% oxygen mixture (patients [2]; in vivo): 0.636 MAC; mixture concentration at which conscious sedation occurs in most patients (patients [3]): 70%
FC(F)OC(F)(F)C(F)Cl (stereo not shown) [Enflurane] | – | – | 1.68% | 1.07% | – | –
Cc1ncc2n1-c1ccc(Cl)cc1C(c1ccccc1F)=NC2 [IV Midazolam, Midazolam] | Controlled | Moderate | – | – | – | –
FC(F)OC(F)C(F)(F)F (stereo not shown) [Desflurane] | – | – | 6.00% | 3.82% | – | –
COC(F)(F)C(Cl)Cl [Methoxyflurane] | – | – | 0.16% | – | decompose | MAC (patients [1]; listed as methoxyflurane): 0.16%; Implied CS Level (patients [2]; MAC equivalent of 70% nitrous oxide (.636)): 0.11%
FCOC(C(F)(F)F)C(F)(F)F [Sevoflurane] | – | – | 2.00% | 1.27% | decompose | –
CN1C(=O)CN=C(c2ccccc2)c2cc(Cl)ccc21 [IV Diazepam, Diazepam] | Controlled | Moderate | – | – | – | –
FC(F)(F)C(Cl)Br (stereo not shown) [Halothane] | – | – | 0.75% | 0.48% | decompose | –
FC(F)OC(Cl)C(F)(F)F (stereo not shown) [Isoflurane] | – | – | 1.15% | 0.73% | – | –
